Measurements from US8012945B2, “Phage antibodies to radiation-inducible neoantigens” (Vanderbilt University, priority 2001, dated 2011).

Key:
[1] = biological target: T1, GP-IIb/IIIa receptors on activated platelets (Homo sapiens, UniProt P05106+P08514); test: Clinical trial of x-ray-guided delivery, gamma camera/SPECT imaging of ^99mTc-labeled biapcitide; assay type: in vivo
T1 construct: endogenous in cells; host or cells: platelets in irradiated tumours of patients (in vivo imaging)
Description: Biapcitide (ACUTECT® available from Diatide, Inc., Londonderry, N.H., United States of America) is a synthetic peptide that binds to GP-IIb/IIIa receptors on activated platelets (Hawiger et al., 1989; Hawiger & Timmons, 1992). Biapcitide was labeled with ^99mTc in accordance with a protocol provided by Diatide Inc.
Reconstituted ^99mTc-labeled biapcitide was administered to patients at a dose of 100 mcg of biapcitide radiolabeled with 10 millicuries (mCi) of ^99mTc. […] Patients were then treated with 10 Gy or more. Patients underwent gamma camera imaging prior to irradiation and 24 hours following irradiation. Following planar image acquisition, those patients showing uptake in irradiated tumors underwent tomographic imaging using SPECT and repeat imaging at 24 hours. Patients showing no uptake on planer images during this 24-hour time frame had no further imaging.
Patients were treated with X-irradiation ranging from 4 to 18 MV photon using external beam linear accelerator at Vanderbilt University. Appropriate blocks, wedges and bolus to deliver adequate dose to the planned target volume was utilized. The site of irradiation, treatment intent and normal tissue considerations determined the radiation dosage and volume. When stereotactic radiosurgery was used, the dose was prescribed to the tumor periphery.
Image Analysis. Image acquisition consisted of both planar and single photon emission computed tomography (SPECT) studies. […] The spatial distribution of […] within the planar image was measured using region of interest (ROI) analysis. […] The rationale for using ROIs with different dimensions is to be able to quantify image counts while at the same time isolating any possible influence of ROI size on the results. […] Background counts was determined based on ROI analysis of a separate planar acquisition performed in the absence of a radioactive source.
Three-dimensional nuclear medicine SPECT examinations were performed using the same dual-head gamma camera system. […] SPECT tumor-to-background ratios were computed using quantitative ROI techniques identical to the planar studies.

[2] = tested on: B16F0 tumors; test: Biotinylated dodecapeptide binding in B16F0 hind limb tumors, Avidin-FITC staining; assay type: in vivo, mice
From the text: Observations. The peptide sequence within fibrinogen that binds to the activated GPIIb/IIIa receptor is the dodecapeptide […] (SEQ ID NO: 16). To determine whether […] (SEQ ID NO: 16) binds in irradiated tumors, applicant utilized the peptide […] (SEQ ID NO: 16) linked to biotin by a serine-glycine linker ([…]-SGSGSK-biotin; SEQ ID NO: 30). This peptide was synthesized in the Vanderbilt University Peptide Core Lab and biotinylated at the carboxyl terminus. The resulting […]-SGSGSK-biotin (SEQ ID NO: 30) was administered by tail vein injection into tumor bearing mice. B16F0 tumors in the hind limb were treated with sham irradiation (control), 4 Gy irradiation followed by […]-SGSGSK-biotin (SEQ ID NO: 30) injection, or […]-SGSGSK-biotin (SEQ ID NO: 30) followed by tumor irradiation (4 Gy). Tumors were frozen at 4 hours and sectioned for fluorescence staining. Avidin-FITC was incubated with tumor sections and imaged by UV microscopy.

[3] = biological target: T2, α2bβ3 receptor (Mus musculus, UniProt O54890+Q9QUM0); test: Recombinant phage binding in irradiated tumors after blocking antibody, plaque formation; assay type: in vivo; conditions: phage quantified by plaque formation
T2 construct: from tissue; host or cells: irradiated tumours (blood vessels and platelets) in living mice
T2 sequence (Q9QUM0 32-1033): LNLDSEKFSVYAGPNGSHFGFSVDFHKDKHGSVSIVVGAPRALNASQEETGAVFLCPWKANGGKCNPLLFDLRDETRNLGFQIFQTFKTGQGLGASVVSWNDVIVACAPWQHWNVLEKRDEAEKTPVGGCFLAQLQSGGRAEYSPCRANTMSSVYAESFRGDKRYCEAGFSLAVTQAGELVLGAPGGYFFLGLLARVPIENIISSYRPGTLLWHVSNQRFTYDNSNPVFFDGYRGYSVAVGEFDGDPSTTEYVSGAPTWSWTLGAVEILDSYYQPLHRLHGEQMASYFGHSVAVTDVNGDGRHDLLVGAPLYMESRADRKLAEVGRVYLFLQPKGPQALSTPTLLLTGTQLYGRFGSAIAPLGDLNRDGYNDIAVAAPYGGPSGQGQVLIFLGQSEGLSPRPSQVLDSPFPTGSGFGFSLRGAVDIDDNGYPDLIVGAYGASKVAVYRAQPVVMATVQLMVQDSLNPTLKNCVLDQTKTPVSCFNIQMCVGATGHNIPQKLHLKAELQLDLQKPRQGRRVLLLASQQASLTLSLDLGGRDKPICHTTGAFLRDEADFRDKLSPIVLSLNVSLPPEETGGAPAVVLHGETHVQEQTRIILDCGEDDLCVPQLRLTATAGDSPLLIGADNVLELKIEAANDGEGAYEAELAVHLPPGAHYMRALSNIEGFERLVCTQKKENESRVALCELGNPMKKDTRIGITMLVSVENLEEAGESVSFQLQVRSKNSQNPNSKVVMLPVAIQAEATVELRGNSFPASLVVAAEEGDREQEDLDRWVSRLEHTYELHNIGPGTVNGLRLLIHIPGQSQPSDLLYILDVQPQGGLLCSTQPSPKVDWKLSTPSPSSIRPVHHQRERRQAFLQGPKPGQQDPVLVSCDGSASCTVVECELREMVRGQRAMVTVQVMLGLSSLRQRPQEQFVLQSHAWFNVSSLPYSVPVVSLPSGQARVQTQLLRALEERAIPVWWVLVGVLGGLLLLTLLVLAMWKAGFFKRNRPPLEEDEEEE
T2 sequence (O54890 26-787): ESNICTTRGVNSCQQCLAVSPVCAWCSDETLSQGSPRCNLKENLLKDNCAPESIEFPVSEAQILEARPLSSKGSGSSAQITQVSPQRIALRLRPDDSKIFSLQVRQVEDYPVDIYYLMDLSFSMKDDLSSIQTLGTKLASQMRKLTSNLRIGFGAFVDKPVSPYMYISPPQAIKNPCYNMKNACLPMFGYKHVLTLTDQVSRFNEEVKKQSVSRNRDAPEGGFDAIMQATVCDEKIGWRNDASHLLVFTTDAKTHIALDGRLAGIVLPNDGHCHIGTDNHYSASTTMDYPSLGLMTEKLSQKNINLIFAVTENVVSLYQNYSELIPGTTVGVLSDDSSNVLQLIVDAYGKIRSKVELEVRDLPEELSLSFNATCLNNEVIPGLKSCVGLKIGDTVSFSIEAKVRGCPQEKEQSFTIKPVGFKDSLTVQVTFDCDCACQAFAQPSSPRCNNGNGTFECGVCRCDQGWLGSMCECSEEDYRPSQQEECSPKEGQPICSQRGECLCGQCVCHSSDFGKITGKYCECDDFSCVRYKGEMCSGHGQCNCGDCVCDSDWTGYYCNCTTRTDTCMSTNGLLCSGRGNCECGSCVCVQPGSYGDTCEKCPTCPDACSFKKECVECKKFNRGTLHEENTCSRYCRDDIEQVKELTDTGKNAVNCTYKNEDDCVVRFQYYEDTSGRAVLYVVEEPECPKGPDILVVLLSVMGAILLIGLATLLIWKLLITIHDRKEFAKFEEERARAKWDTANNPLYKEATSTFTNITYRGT
Description: The anti-[…]2b[…]3 monoclonal antibody was administered by tail vein to determine whether this receptor is required for recombinant phage binding in irradiated tumors. Phage encoding […] (SEQ ID NO: 5) on the capsid protein were injected immediately after blocking antibody or control antibody. Phage were recovered from the tumor and controls organs and quantified by plaque formation. Radiation induced a 4-fold increase in phage binding in tumor. […] Thus, the tumor binding activity of targeting peptide […] (SEQ ID NO: 5) is dependent on its interaction with the α2bβ3 receptor.

T1 sequence (P08514 32-887 limits assumed): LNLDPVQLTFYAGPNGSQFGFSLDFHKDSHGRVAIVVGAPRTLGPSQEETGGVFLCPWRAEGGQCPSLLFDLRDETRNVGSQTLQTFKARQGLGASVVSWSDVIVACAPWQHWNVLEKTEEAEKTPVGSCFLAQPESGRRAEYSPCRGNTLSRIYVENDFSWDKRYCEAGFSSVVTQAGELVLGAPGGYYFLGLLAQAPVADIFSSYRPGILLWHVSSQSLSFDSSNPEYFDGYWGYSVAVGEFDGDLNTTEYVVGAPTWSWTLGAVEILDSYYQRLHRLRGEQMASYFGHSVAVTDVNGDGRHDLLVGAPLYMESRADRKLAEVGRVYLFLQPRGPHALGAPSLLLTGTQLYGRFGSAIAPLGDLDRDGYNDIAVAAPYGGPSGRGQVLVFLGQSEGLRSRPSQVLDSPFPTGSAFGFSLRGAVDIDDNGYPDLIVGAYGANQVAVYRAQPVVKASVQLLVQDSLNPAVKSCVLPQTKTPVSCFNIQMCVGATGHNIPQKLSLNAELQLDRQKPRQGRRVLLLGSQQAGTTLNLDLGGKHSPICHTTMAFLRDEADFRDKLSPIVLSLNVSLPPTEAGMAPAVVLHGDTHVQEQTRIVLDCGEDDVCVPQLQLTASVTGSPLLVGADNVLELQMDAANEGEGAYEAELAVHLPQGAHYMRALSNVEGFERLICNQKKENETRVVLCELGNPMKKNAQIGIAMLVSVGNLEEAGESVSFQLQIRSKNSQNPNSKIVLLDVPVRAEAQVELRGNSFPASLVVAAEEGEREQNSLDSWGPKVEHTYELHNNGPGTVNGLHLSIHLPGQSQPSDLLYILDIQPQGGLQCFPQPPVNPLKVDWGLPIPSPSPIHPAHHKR
T1 sequence (P08514 891-1039 partner limits assumed): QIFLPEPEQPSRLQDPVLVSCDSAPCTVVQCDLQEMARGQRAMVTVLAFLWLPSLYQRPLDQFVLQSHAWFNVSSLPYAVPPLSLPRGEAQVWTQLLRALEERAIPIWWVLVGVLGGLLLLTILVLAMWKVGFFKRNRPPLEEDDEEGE
T1 sequence (P05106 27-788): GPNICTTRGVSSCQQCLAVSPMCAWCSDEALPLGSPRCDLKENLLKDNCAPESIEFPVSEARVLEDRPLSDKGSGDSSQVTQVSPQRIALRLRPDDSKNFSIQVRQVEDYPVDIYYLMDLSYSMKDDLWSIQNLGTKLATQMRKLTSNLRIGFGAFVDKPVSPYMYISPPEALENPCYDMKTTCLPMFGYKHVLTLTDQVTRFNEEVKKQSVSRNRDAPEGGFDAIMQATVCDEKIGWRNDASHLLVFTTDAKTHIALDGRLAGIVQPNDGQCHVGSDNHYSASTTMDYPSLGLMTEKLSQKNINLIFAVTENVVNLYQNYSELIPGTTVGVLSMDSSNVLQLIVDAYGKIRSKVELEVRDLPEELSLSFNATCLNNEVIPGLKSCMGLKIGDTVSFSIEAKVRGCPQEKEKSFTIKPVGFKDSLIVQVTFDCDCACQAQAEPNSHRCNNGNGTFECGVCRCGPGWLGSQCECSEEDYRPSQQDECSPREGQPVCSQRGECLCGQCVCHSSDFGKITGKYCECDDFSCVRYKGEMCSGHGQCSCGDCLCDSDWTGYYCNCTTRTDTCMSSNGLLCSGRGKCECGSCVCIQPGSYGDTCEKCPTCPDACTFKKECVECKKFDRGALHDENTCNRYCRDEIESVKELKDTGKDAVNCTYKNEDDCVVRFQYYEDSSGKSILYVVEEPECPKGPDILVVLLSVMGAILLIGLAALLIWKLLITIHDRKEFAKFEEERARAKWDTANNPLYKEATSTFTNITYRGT

Biapcitide [^99mTc-labeled biapticide]
tumor binding ([1]; administered immediately prior to radiation): 4 of 4 | localization to the tumor ([1]; administered within one hour following radiation): failed to show localization | binding in untreated tumor ([1]; second neoplasms not treated with radiation, two patients): not observed

HHLGGAKQAGDV (Artificial peptide ligand number 16) [dodecapeptide, segment of the γ subunit of fibrinogen]
efficiency of schedule of administration ([2]; administration prior to irradiation compared to radiation before administration): administration prior to irradiation is a more efficient schedule

HHLGGAKQAGDV-SGSGSK-biotin
Avidin-FITC staining of tumor sections, irradiated tumors ([2]; 4 Gy, tumors frozen at 4 hours): Avidin-FITC stained blood vessels were observed | Avidin-FITC staining of tumor sections, untreated control ([2]; sham irradiation): not in untreated control

SLRGDGSSV (phage-displayed; Artificial peptide ligand number 5)
radiation-induced increase in phage binding in tumor [3]: 4 fold
